What is called IC50 is the concentration at which inhibition is half-maximal.

One assay has as its target T1, androgen receptor (Homo sapiens, UniProt P10275).
T1 sequence (P10275 1-920 Q868H): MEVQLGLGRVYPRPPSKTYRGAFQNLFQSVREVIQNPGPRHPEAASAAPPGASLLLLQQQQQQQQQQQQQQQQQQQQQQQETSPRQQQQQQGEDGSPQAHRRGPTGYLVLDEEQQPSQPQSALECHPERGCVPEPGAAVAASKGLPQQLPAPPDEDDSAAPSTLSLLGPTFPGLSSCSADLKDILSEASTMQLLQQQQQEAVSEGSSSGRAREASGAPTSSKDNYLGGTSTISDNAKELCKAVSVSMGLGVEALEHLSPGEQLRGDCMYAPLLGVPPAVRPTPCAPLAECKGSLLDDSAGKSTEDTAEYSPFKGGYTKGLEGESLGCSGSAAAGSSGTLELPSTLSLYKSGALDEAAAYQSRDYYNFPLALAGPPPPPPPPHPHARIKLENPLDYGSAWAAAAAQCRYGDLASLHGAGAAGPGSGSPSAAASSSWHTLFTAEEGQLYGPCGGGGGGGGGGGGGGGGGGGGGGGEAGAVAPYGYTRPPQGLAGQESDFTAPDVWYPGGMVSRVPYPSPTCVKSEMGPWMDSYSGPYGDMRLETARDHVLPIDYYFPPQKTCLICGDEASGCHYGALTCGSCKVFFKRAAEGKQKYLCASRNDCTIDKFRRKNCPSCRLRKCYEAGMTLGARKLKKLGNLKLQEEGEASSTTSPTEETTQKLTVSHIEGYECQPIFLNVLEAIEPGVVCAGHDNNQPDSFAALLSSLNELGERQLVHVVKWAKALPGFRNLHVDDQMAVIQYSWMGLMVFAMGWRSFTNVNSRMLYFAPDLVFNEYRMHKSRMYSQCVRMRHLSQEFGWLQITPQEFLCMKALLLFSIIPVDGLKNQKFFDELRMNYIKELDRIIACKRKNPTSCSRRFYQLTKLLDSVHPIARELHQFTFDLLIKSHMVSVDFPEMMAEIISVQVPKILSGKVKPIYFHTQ
Kind of assay: AR Antagonist Cell Assay (MDA-MB453-MMTV clone 54-19, luciferase reporter). In kind it is cell-based. The note with it: inhibition of induction by DHT (final concentration at 100 μM), 17 hr; compound 0.32-1000 nM; mean of multiple tests. The method, boiled down:
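MDA-MB453 breast tumour cells stably carrying an ARE-containing MMTV promoter driving firefly luciferase, plated overnight at 37° C in charcoal-treated serum medium. DHT added (final […]) and incubated 17 hr at 37° C. Luminescence read after adding luciferase buffer; values are means of multiple tests.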
With `CC[C@H](C)N1CC(C)(C)[C@@H](Oc2ccc(C#N)c(C(F)(F)F)c2)C1=O` [Example 1, (3R,S)-(+)-4-(1-sec-Butyl-4,4-dimethyl-2-oxo-pyrrolidin-3-yloxy)-2-trifluoromethyl-benzonitrile], the IC50 was 0.033 µM.

For the compound `CCCN1CC(C)(C)[C@@H](Oc2ccc(C#N)c(C(F)(F)F)c2)C1=O` [Example 4A, (+)-4-(1-Propyl-4,4-dimethyl-2-oxo-pyrrolidin-3-yloxy)-2-trifluoromethyl-benzonitrile (E2)], the IC50 came to 0.092 µM. Consider `CCCN1CC(C)(C)C(Oc2ccc(C#N)c(C(F)(F)F)c2)C1=O` (stereo not shown) [Example 4, 4-(4,4-dimethyl-2-oxo-1-propyl-pyrrolidin-3-yloxy)-2-trifluoromethyl-benzonitrile], for which the IC50 stood at 0.026 µM.

For the compound `CCCS(=O)(=O)N1CC(C)(C)C(Oc2ccc(C#N)c(C(F)(F)F)c2)C1=O` (single isomer, unassigned; (+)) [Example 82, (+)-4-[4,4-Dimethyl-2-oxo-1-(propane-1-sulfonyl)-pyrrolidin-3-yloxy]-2-trifluoromethyl-benzonitrile], half-maximal inhibition (IC50) required 0.056 µM.

Take `CCCCN1CC(C)(C)C(Oc2ccc(C#N)c(C(F)(F)F)c2)C1=O` (single isomer, unassigned; (+)) [Example 20, (+)-4-(1-Butyl-4,4-dimethyl-2-oxo-pyrrolidin-3-yloxy)-2-trifluoromethyl-benzonitrile]: the IC50 was found to be 0.013 µM.

The same assay, now with this note: inhibition of induction by DHT (final concentration at 100 μM), 17 hr; compound 0.32-1000 nM; mean of multiple tests; read-out: IC50.
`CC1(C)CN(S(C)(=O)=O)C(=O)C1Oc1ccc(C#N)c(C(F)(F)F)c1` (stereo not shown) [Example 81, 4-(1-methanesulfonyl-4,4-dimethyl-2-oxo-pyrrolidin-3-yloxy)-2-trifluoromethyl-benzonitrile]: the IC50 worked out at 0.199 µM. With `CC(c1ccccc1)N1CC(C)(C)C(Oc2ccc(C#N)cc2Cl)C1=O` (stereo not shown) [Example 109], the IC50 amounted to 0.014 µM.

Source of the values: patent US7674819B2 (Warner-Lambert Company LLC, priority 2005, dated 2010).
